Measurements reported in patent US7429599B2, “Methods for treating or preventing an inflammatory or metabolic condition or inhibiting JNK” (Signal Pharmaceuticals, LLC, priority 2000, dated 2008).

Target: T1, His6-JNK2 (Homo sapiens, UniProt P45984)
T1 construct: His6 (N)
Assay: JNK2 Assay (c-Jun phosphorylation, 32P-ATP filter plate)
Format: biochemical
Conditions: c-Jun phosphorylation reduced to 50% of control; GST-c-Jun(1-79), 11 μM ATP; read-out: IC50 value in the JNK2 Assay
Experimental: To 10 μL of the test compound in 20%/DMSO/80% dilutien buffer consisting of 20 mM HELPS (pH 7.6), 0.1 mM; EDTA, 2.5 mM magnesium chloride, 0.004% Triton×100, 2 μg/mL leupeptin, 20 mM β-glycerolphosphate, 0.1 mM sodium vanadate, and 2 mM DTT in water is added 30 μL of 50 ng His6-JNK2 in the same dilution buffer. The mixture is preincubated for 30 minutes at room temperature. Sixty microliter of 10 μg GST-c-Jun(1-79) in assay buffer consisting of 20 mM HEPES (pH 7.6), 50 mM sodium chloride, 0.1 mM EDTA, 24 mM magnesium chloride, 1 mM DTT, 25 mM PNPP, 0.05% Triton×100, 11 μM ATP, and 0.5 μCi γ-^32P ATP in water is added and the reaction is allowed to proceed for 1 hour at room temperature. The c-Jun phosphorylation is terminated by addition of 150 μL of 12.5% trichloroacetic acid. After 30 minutes, the precipitate is harvested onto a filter plate, diluted with 50 μL of the scintillation fluid and quantified by a counter. The IC50 values are calculated as the concentration of the test compound at which the c-Jun phosphorylation is reduced to 50% of the control value.

T1 sequence (P45984 whole entry): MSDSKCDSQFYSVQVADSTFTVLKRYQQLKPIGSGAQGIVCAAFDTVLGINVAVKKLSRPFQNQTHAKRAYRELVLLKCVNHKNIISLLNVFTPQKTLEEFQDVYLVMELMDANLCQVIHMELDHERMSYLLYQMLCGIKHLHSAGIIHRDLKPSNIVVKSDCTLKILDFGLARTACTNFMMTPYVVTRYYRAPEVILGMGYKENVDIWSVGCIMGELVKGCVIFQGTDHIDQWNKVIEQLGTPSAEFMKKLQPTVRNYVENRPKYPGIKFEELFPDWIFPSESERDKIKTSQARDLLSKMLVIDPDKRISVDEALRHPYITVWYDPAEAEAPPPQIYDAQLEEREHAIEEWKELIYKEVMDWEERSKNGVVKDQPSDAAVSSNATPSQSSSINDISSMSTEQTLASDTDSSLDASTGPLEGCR

| IC50 | SMILES |
| --- | --- |
| ≤ 10 µM | NC(=O)c1ccc(Nc2nccc(-c3ccc(Cl)cc3)n2)cc1 [Compound 1, 4-{[4-(4-Chlorophenyl)pyrimidin-2-yl]amino}benzamide] |
| ≤ 1 µM | NC(=O)c1ccc(Nc2nccc(-c3cccs3)n2)cc1 [Compound 3-2] |
| ≤ 1 µM | NC(=O)c1ccc(Nc2nccc(-c3ccccc3)n2)cc1 [Compound 3-4] |
| ≤ 1 µM | NC(=O)c1ccc(Nc2nccc(-c3ccc(S(=O)(=O)c4ccccn4)cc3)n2)cc1 [Compound 3-9] |
| ≤ 10 µM | NC(=O)c1ccc(Nc2nccc(-c3ccc(SCCCN4CCOCC4)cc3)n2)cc1 [Compound 3-10] |
| ≤ 10 µM | CN(C)CCCSc1ccc(-c2ccnc(Nc3ccc(C(N)=O)cc3)n2)cc1 [Compound 3-11] |
| ≤ 10 µM | CN1CCN(CCCSc2ccc(-c3ccnc(Nc4ccc(C(N)=O)cc4)n3)cc2)CC1 [Compound 3-12] |
| ≤ 1 µM | NC(=O)c1ccc(Nc2nccc(-c3ccc(S(=O)(=O)c4cccnc4)cc3)n2)cc1 [Compound 3-13] |
| ≤ 1 µM | NC(=O)c1ccc(Nc2nccc(-c3ccc(SCCCO)cc3)n2)cc1 [Compound 3-14] |
| ≤ 1 µM | NC(=O)c1ccc(Nc2nccc(-c3ccc(S(=O)(=O)CCCO)cc3)n2)cc1 [Compound 3-15] |
| ≤ 10 µM | CN1CCC(S(=O)(=O)c2ccc(-c3ccnc(Nc4ccc(C(N)=O)cc4)n3)cc2)CC1 [Compound 3-16] |
| ≤ 10 µM | CN1CCN(S(=O)(=O)c2ccc(-c3ccnc(Nc4ccc(C(N)=O)cc4)n3)cc2)CC1 [Compound 3-17] |
| ≤ 10 µM | NC(=O)c1ccc(Nc2nccc(-c3ccc(Br)cc3)n2)cc1 [Compound 3-22] |
| ≤ 1 µM | CCOc1ccc(-c2ccnc(Nc3ccc(C(N)=O)cc3)n2)cn1 [Compound 3-23] |
| ≤ 1 µM | COc1ccc(-c2ccnc(Nc3ccc(C(N)=O)cc3)n2)cn1 [Compound 3-24] |
| ≤ 1 µM | CN(C)c1ccc(-c2ccnc(Nc3ccc(C(N)=O)cc3)n2)cn1 [Compound 3-25] |
| ≤ 10 µM | NC(=O)c1ccc(Nc2nccc(-c3ccc(N4CCCCC4)cc3)n2)cc1 [Compound 3-26] |
| ≤ 10 µM | NC(=O)c1ccc(Nc2nccc(-c3ccc([N+](=O)[O-])cc3)n2)cc1 [Compound 3-27] |
| ≤ 10 µM | CN(C)c1ccc(-c2ccnc(Nc3ccc(C(N)=O)cc3)n2)cc1 [Compound 3-29] |
| ≤ 10 µM | NC(=O)c1ccc(Nc2nccc(-c3ccc(N4CCOCC4)cc3)n2)cc1 [Compound 3-30] |

| IC50 | SMILES |
| --- | --- |
| ≤ 10 µM | NC(=O)c1ccc(Nc2nccc(-c3ccc4ccccc4c3)n2)cc1 [Compound 3-34] |
| ≤ 10 µM | NC(=O)c1ccc(Nc2nccc(-c3ccc(-n4ccnc4)cc3)n2)cc1 [Compound 3-36] |
| ≤ 10 µM | Cc1cnc(Nc2ccc(C(N)=O)cc2)nc1-c1ccc(Cl)cc1 [Compound 3-37] |
| ≤ 1 µM | NC(=O)c1ccc(Nc2nccc(-c3ccc(C(=O)O)cc3)n2)cc1 [Compound 3-40] |
| ≤ 10 µM | CN(C)C(=O)c1ccc(Nc2nccc(-c3ccc(Cl)cc3)n2)cc1 [Compound 17-2] |
| ≤ 10 µM | CNC(=O)c1ccc(Nc2nccc(-c3ccc(Cl)cc3)n2)cc1 [Compound 17-3] |
| ≤ 10 µM | CN(C)C(=O)c1ccc(Nc2nccc(-c3ccc(Br)cc3)n2)cc1 [Compound 17-18] |
| ≤ 1 µM | O=C(c1ccc(Nc2nccc(-c3ccc(Cl)cc3)n2)cc1)N1CCC(O)CC1 [Compound 17-20] |
| ≤ 1 µM | O=C(NCCCn1ccnc1)c1ccc(Nc2nccc(-c3ccc(Cl)cc3)n2)cc1 [Compound 17-21] |
| ≤ 1 µM | CC(=O)NCCNC(=O)c1ccc(Nc2nccc(-c3ccc(Cl)cc3)n2)cc1 [Compound 17-22] |
| ≤ 10 µM | O=C(NCCCN1CCCCC1)c1ccc(Nc2nccc(-c3ccc(Cl)cc3)n2)cc1 [Compound 17-23] |
| ≤ 1 µM | COCCNC(=O)c1ccc(Nc2nccc(-c3ccc(Cl)cc3)n2)cc1 [Compound 17-24] |
| ≤ 10 µM | O=C(NCCCO)c1ccc(Nc2nccc(-c3ccc(Cl)cc3)n2)cc1 [Compound 17-25] |
| ≤ 10 µM | CC(O)CNC(=O)c1ccc(Nc2nccc(-c3ccc(Cl)cc3)n2)cc1 (stereo not shown) [Compound 17-26] |
| ≤ 10 µM | O=C(c1ccc(Nc2nccc(-c3ccc(Cl)cc3)n2)cc1)N1CCC[C@@H]1CO [Compound 17-27] |
| ≤ 10 µM | O=C(c1ccc(Nc2nccc(-c3ccc(Cl)cc3)n2)cc1)N1CCC(O)C1 (stereo not shown) [Compound 17-28] |
| ≤ 1 µM | CC(=O)N1CCN(C(=O)c2ccc(Nc3nccc(-c4ccc(S(=O)(=O)c5ccncc5)cc4)n3)cc2)CC1 [Compound 17-29] |
| ≤ 1 µM | O=C(c1ccc(Nc2nccc(-c3ccc(S(=O)(=O)c4ccncc4)cc3)n2)cc1)N1CCN(C(=O)c2ccco2)CC1 [Compound 17-30] |
| ≤ 1 µM | CN(C)C(=O)c1ccc(Nc2nccc(-c3ccc(SCCCO)cc3)n2)cc1 [Compound 17-31] |
| ≤ 1 µM | CC(C)NC(=O)CN1CCN(C(=O)c2ccc(Nc3nccc(-c4ccc(SCCCO)cc4)n3)cc2)CC1 [Compound 17-32] |

| IC50 | SMILES |
| --- | --- |
| ≤ 1 µM | CC(=O)N1CCN(C(=O)c2ccc(Nc3nccc(-c4ccc(SCCCO)cc4)n3)cc2)CC1 [Compound 17-33] |
| ≤ 1 µM | O=C(c1ccc(Nc2nccc(-c3ccc(SCCCO)cc3)n2)cc1)N1CCN(C(=O)c2ccco2)CC1 [Compound 17-34] |
| ≤ 10 µM | CCN1CCN(C(=O)c2ccc(Nc3nccc(-c4ccc(Cl)cc4)n3)cc2)CC1 [Compound 17-35] |
| ≤ 1 µM | CCC(=O)N1CCN(C(=O)c2ccc(Nc3nccc(-c4ccc(Cl)cc4)n3)cc2)CC1 [Compound 17-37] |
| ≤ 10 µM | O=C(NCCCN1CCCC1=O)c1ccc(Nc2nccc(-c3ccc(Cl)cc3)n2)cc1 [Compound 17-54] |
| ≤ 10 µM | O=C(NCCCN1CCOCC1)c1ccc(Nc2nccc(-c3ccc(Cl)cc3)n2)cc1 [Compound 17-86] |
| ≤ 10 µM | COC(=O)CNC(=O)c1ccc(Nc2nccc(-c3ccc(Cl)cc3)n2)cc1 [Compound 17-91] |
| ≤ 10 µM | O=C(NCCCCO)c1ccc(Nc2nccc(-c3ccc(Cl)cc3)n2)cc1 [Compound 17-106] |
| ≤ 10 µM | O=C(NCCc1ccccn1)c1ccc(Nc2nccc(-c3ccc(Cl)cc3)n2)cc1 [Compound 17-118] |
| ≤ 10 µM | O=C(Nc1ccc2[nH]ncc2c1)c1ccc(Nc2nccc(-c3ccc(Cl)cc3)n2)cc1 [Compound 17-119] |
| ≤ 10 µM | O=C(Nc1nc2ccccc2[nH]1)c1ccc(Nc2nccc(-c3ccc(Cl)cc3)n2)cc1 [Compound 17-121] |
| ≤ 1 µM | CN1CCN(C(=O)c2ccc(Nc3nccc(-c4ccc(Cl)cc4)n3)cc2)CC1 [Compound 17-127] |
| ≤ 10 µM | O=C(c1ccc(Nc2nccc(-c3ccc(Cl)cc3)n2)cc1)N1CCN(Cc2ccc3c(c2)OCO3)CC1 [Compound 17-128] |
| ≤ 1 µM | CC(=O)N1CCN(C(=O)c2ccc(Nc3nccc(-c4ccc(Cl)cc4)n3)cc2)CC1 [Compound 17-129] |
| ≤ 10 µM | CCN(CC)C(=O)C1CCCN(C(=O)c2ccc(Nc3nccc(-c4ccc(Cl)cc4)n3)cc2)C1 (stereo not shown) [Compound 17-130] |
| ≤ 10 µM | O=CN1CCN(C(=O)c2ccc(Nc3nccc(-c4ccc(Cl)cc4)n3)cc2)CC1 [Compound 17-131] |
| ≤ 10 µM | CCCNC(=O)c1ccc(Nc2nccc(-c3ccc(Cl)cc3)n2)cc1 [Compound 17-132] |
| ≤ 10 µM | O=C(c1ccc(Nc2nccc(-c3ccc(Cl)cc3)n2)cc1)N1CCOCC1 [Compound 17-133] |
